Assays:
[1] = target: T1, acyl-CoA:cholesterol acyltransferase (ACAT) (Oryctolagus cuniculus, UniProt G1SFD9); test: inhibition of esterification of cholesterol by ACAT (cholesteryl oleate formation), rabbit intestinal microsomal fraction; type: biochemical; conditions: endogenous cholesterol, exogenous 14C-oleoyl-CoA, read-out: IC50 (concentration of test compound required to inhibit cholesteryl oleate formation to 50% of control)
T1 construct: rabbit intestinal microsomal fraction; from tissue; host or cells: rabbit intestine, microsomal fraction
T1 sequence (G1SFD9 1-524): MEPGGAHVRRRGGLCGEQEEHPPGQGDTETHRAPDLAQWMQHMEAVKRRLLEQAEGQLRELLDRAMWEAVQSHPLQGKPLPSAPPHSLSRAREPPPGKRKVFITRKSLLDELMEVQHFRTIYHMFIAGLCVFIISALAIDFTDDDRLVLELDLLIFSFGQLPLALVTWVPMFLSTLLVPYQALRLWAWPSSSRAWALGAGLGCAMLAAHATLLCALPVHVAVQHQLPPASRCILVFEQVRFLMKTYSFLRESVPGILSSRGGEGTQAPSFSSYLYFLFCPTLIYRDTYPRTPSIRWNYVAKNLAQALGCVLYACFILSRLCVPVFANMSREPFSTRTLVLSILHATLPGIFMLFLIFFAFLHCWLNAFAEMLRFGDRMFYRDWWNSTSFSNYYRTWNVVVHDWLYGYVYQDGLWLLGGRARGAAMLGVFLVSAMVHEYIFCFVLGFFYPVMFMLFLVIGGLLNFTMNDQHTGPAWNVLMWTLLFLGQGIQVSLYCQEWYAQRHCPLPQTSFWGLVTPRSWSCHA
Experimental: The compounds of the present invention were tested for their ability to inhibit the esterification of cholesterol by the enzyme acyl-CoA:cholesterol acyltransferase (ACAT). The data in the table below is expressed as IC50 values, i.e., the concentration of test compound required to inhibit cholesteryl oleate formation to 50% of control.
The in vitro test employed is more fully described in Field, F. J. and Salome, R. G., Biochemica et Biophysica Acta, 712, pp 557-570 (1982). The assay evaluates the ability of a test compound to inhibit the esterification of cholesterol using endogenous cholesterol of a rabbit intestinal microsomal fraction and exogenous ^14 C-oleoyl-CoA as reactants.

HDL = test: elevation of HDL, test drug versus gemfibrozil; type: in vivo, rats; conditions: 50 mg/kg test drug vs 50 mg/kg gemfibrozil; 1 = as effective as gemfibrozil
Experimental: Additionally, the elevation of HDL is reported in the table as a ratio of the elevation of HDL effected by a dose of 50 mg/kg of the test drug divided by the elevation of HDL effected by a 50 mg/kg dose of gemfibrozil which is used as a control in each experiment. [formula] Thus, a figure of 1 means that the test drug was as effective as gemfibrozil in elevating HDL. […] The test procedure is described in U.S. Pat. No. 4,413,011.

[2] = tested on: patients with elevated cholesterol levels; conditions: cited from earlier work

In the case of `CCOC(=O)C=Cc1ccc(NC(=O)C(C)(C)CCCOc2cc(C)ccc2C)cc1` [Example 5, 3-[4-[[5-(2,5-Dimethylphenoxy)-2,2-dimethyl-1-oxopentyl]amino]phenyl]-2-propenoic acid, ethyl ester, reference compound], the IC50 [1] is reported as 45 µM and the “ratio of the elevation of HDL effected by test drug divided by the elevation of HDL effected by gemfibrozil” value (HDL) is reported as 0.56.

In the case of `CCOc1ccccc1NC(=O)C(C)(C)CCCOc1cc(C)ccc1C` [Example 1d, 5-(2,5-dimethylphenoxy)-N-(2-ethoxyphenyl)-2,2-dimethylpentanamide], the IC50 [1] is reported as 5 µM and the “ratio of the elevation of HDL effected by test drug divided by the elevation of HDL effected by gemfibrozil” value (HDL) is reported as 1.08.

For `Cc1ccc(NC(=O)C(C)(C)CCCOc2cc(C)ccc2C)c(C)c1` [Example 1b, 5-(2,5-Dimethylphenoxy)-N-(2,4-dimethylphenyl)-2,2-dimethylpentanamide], the IC50 [1] was 8 µM and the “ratio of the elevation of HDL effected by test drug divided by the elevation of HDL effected by gemfibrozil” value (HDL) was 1.29.

With `COc1ccccc1NC(=O)C(C)(C)CCCOc1cc(C)ccc1C` [Example 1, 5-(2,5-dimethylphenoxy)-N-(2-methoxyphenyl)-2,2-dimethylpentanamide] the IC50 [1] was 14 µM and the “ratio of the elevation of HDL effected by test drug divided by the elevation of HDL effected by gemfibrozil” value (HDL) was 0.31.

For `CCCCCCOc1ccccc1NC(=O)C(C)(C)CCCOc1cc(C)ccc1C` [Example 1f, 5-(2,5-dimethylphenoxy)-N[2-(hexyloxy)phenyl]-2,2-dimethylpentanamide], the IC50 [1] was 10 µM and the “ratio of the elevation of HDL effected by test drug divided by the elevation of HDL effected by gemfibrozil” value (HDL) was 0.42.

With `COc1cc(C)ccc1NC(=O)C(C)(C)CCCOc1cc(C)ccc1C` [Example 1a, 5-(2,5-dimethylphenoxy)-N-(2-methoxy-4-methylphenyl)-2,2-dimethylpentanamide] the IC50 [1] was 6 µM and the “ratio of the elevation of HDL effected by test drug divided by the elevation of HDL effected by gemfibrozil” value (HDL) was 0.80.

With `Cc1ccc(C)c(OCCCC(C)(C)C(=O)Nc2ccc(C)cc2OC(C)C)c1` [Example 1j, 5-(2,5-Dimethylphenoxy)-2,2-dimethyl-N-[4-methyl-2-(1-methylethoxy)phenyl]pentanamide] the IC50 [1] was 8 µM and the “ratio of the elevation of HDL effected by test drug divided by the elevation of HDL effected by gemfibrozil” value (HDL) was 0.84.

For `Cc1ccc(C)c(OCCCC(C)(C)C(=O)O)c1` [gemfibrozil], the “effect on LDL and HDL” value ([2]; in words) is listed as “both lowers LDL and elevates HDL” and the “reduction of the rate of heart attack and sudden cardiac death” value ([2]; patients with elevated cholesterol levels, five years) is listed as 34%.

In the case of `COc1ccc(NC(=O)C(C)(C)CCCOc2cc(C)ccc2C)cc1OC` [Example 1c, N-(3,4-Dimethoxyphenyl)-5-(2,5-dimethylphenoxy)-2,2-dimethylpentanamide], the IC50 [1] is reported as 3 µM and the “ratio of the elevation of HDL effected by test drug divided by the elevation of HDL effected by gemfibrozil” value (HDL) is reported as 1.10.

For `COC(=O)C(C)(C)CCCOc1cccc(NC(=O)C(C)(C)CCCOc2cc(C)ccc2C)c1` [Example 1m, 5-[3-[[5-(2,5-dimethylphenoxy)-2,2-dimethyl-1-oxopentyl]amino]phenoxy]-2,2-dimethylpentanoic acid, methyl ester], the IC50 [1] was 21 µM and the “ratio of the elevation of HDL effected by test drug divided by the elevation of HDL effected by gemfibrozil” value (HDL) was 1.0.

In the case of `Cc1ccc(C)c(OCCCC(C)(C)C(=O)Nc2c(F)cc(F)cc2F)c1` [Example 1h, 5-(2,5-dimethylphenoxy)-2,2-dimethyl-N-(2,4,6-trifluorophenyl)pentanamide], the IC50 [1] is reported as 0.8 µM and the “ratio of the elevation of HDL effected by test drug divided by the elevation of HDL effected by gemfibrozil” value (HDL) is reported as 0.74.

For `COC(=O)C(C)(C)CCCOc1ccccc1NC(=O)C(C)(C)CCCOc1cc(C)ccc1C` [Example 1l, 5-[2[[5-(2,5-dimethylphenoxy)2,2-dimethyl-1-oxopentyl]amino]phenoxy]-2,2-dimethylpentanoic acid, methyl ester], the IC50 [1] was 8 µM and the “ratio of the elevation of HDL effected by test drug divided by the elevation of HDL effected by gemfibrozil” value (HDL) was 0.4.

For `Cc1ccc(C)c(OCCCC(C)(C)C(=O)Nc2ccc3c(c2)OCO3)c1` [Example 1k, N-1,3-Benzodioxol-5-yl-5-(2,5-dimethylphenoxy)-2,2dimethylpentanamide], the IC50 [1] was 6 µM and the “ratio of the elevation of HDL effected by test drug divided by the elevation of HDL effected by gemfibrozil” value (HDL) was 1.13.

With `Cc1ccc(C)c(OCCCC(C)(C)C(=O)Nc2ccc(F)cc2F)c1` [Example 1g, N-(2,4-Difluorophenyl)-5-(2,5-dimethylphenoxy)-2,2dimethylpentanamide] the IC50 [1] was 7 µM and the “ratio of the elevation of HDL effected by test drug divided by the elevation of HDL effected by gemfibrozil” value (HDL) was 0.36.

From patent publication US4882357A, “Novel N-(substituted-phenyl)-5-(substituted-2,5-dimethylphenoxy)-2,2-dimethylp entanamides” (Warner-Lambert Company, priority 1988, dated 1989)
